In patent US20260033761A1, “CHARACTERISATION OF NEUROLOGICAL DYSFUNCTION” (Hoffmann-La Roche Inc., priority 2022, published 2026):
Entries after “also recorded” stand apart in the source; their conditions may differ. Where two headings read alike, the source gives them in different places.

Assays:
GABA-A α5 [1] = target: T1, GABA-A α5 (Homo sapiens, UniProt P18507+P31644); parameters: host or cells: brain of healthy volunteers (and individuals with Down syndrome), in vivo EEG; conditions: cited from earlier work
T1 sequence (P31644 32-462): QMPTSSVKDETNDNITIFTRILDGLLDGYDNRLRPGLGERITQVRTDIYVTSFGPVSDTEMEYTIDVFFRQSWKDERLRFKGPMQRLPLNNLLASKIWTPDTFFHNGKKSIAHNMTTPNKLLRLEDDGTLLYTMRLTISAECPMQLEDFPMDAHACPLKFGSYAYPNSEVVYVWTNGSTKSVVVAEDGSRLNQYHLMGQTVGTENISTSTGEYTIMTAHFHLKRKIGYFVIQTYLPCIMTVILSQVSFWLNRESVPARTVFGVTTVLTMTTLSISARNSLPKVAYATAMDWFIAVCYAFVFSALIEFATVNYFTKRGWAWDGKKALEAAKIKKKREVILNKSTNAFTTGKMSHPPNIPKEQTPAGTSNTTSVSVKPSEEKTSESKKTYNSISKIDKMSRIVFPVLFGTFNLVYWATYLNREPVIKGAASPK
T1 sequence (P28472 26-473 partner): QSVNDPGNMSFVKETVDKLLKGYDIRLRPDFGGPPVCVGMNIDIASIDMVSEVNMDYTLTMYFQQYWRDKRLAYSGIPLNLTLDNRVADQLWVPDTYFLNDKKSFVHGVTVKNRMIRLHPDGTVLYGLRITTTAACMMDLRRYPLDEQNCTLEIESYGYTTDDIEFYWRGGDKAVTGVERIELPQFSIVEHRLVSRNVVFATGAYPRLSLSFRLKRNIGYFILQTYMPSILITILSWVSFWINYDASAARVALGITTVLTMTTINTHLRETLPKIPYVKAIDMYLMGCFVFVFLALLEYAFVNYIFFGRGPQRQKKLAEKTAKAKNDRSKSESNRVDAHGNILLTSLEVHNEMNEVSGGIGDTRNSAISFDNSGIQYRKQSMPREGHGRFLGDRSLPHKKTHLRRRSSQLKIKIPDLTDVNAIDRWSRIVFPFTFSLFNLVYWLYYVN
T1 sequence (P18507 40-467 limits assumed): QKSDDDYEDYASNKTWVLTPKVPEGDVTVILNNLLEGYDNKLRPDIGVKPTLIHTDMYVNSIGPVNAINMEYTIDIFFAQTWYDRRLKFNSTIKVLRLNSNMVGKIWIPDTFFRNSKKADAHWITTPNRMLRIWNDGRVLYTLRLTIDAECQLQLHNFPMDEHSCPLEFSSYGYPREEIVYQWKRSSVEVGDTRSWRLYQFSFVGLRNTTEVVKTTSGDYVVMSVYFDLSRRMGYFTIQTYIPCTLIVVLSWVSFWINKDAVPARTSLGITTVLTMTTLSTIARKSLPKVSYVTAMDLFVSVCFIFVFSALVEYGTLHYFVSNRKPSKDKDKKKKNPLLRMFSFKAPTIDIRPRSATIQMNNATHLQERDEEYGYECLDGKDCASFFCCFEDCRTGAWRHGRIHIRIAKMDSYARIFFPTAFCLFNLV

GABA-A α5 receptors = target: T2, GABA-A α5 receptors (Rattus norvegicus, UniProt P18508+P19969); conditions: Wistar rats prenatally exposed to valproic acid; cited from earlier work
T2 construct: host or cells: Wistar rats in vivo (valproic acid model)

GABA-A receptors = conditions: Visser et al., 2003; cited from earlier work
GABA-A α5 [2] = target: T1, GABA-A α5; test: Resting state EEG, Phase 1 SAD/MAD study BP40091 (alogabat vs placebo); format: in vivo, human (adult healthy volunteers); parameters: endogenous in cells; host or cells: brain of adult healthy volunteers, in vivo (resting-state EEG)
Excerpt: Extracting beta band oscillations. […] Here this approach is applied to isolate beta-band oscillations from EEG signals (FIGS. 4,5). This approach entails the estimation of the “background activity” in the frequency range of interest, which is non-oscillatory and/or composed of many oscillatory signals at different neighboring frequencies and therefore appears non-oscillatory. In a first implementation referred to as “locally referenced power”, the “background activity” for a given frequency range of interest (here beta frequency range defined as 16-32 Hz) is estimated by interpolation from power at lower and higher neighboring frequencies, referred to herein as “reference supports” (in this example, reference support points of 12 and 40 Hz are used). Note that in cases where a peak in the alpha band is expected (e.g. a peak around 10 Hz), reference support points that are closer to the beta frequency range on the lower end of the scale may be used, such as e.g. any point between 12 and 16 Hz). The estimated “background activity” is then “removed” (i.e. excluded, such as subtracted) from the power in the frequency range of interest or a power spectral density value at a specific frequency within this frequency range (e.g. the peak frequency, or a predetermined frequency, such as e.g. a frequency identified as the group level peak in a population, e.g. 23 Hz in the present case). The resulting estimate should thereby provide a more specific measure of the oscillatory physiological process under investigation (here GABAA-related beta-band oscillations).
More specifically, the “background power spectral density” at a given frequency may be derived by linear interpolation of logarithmically transformed power and frequencies (see FIG. 4B). The power signal in spectral analysis is typically log transformed by default. […] The “background power” is then estimated as the integral of this “background power spectral density” over the beta frequency range (here defined as 16-32 Hz). In other words, the “background signal” is the area under a straight line extending between the value of the spectrum at each of the support points (“background signal line”), between 16 and 32 Hz. The “locally referenced beta power” is then defined as the logarithm of the ratio between the beta power defined as the integral over the beta frequency range and the estimate of the “background power” (which is equivalent to the logarithm of the beta power defined as the integral over the beta frequency range, minus the logarithm of the estimate of the “background power”, or the area under the power curve in log scale, in the beta frequency range, minus the area under the background signal line in log scale, in the beta frequency range). Note that this metric will be negative when there is a deficit in the signal in this range compared to background.
In a third implementation, an approach using a global fit of the power spectrum composed of a superposition of oscillatory signals and a 1/f^α component was used to estimate the background signal. The 1/f^α component of the fit (estimated as described in Donoghue et al., 2020, see FIG. 4C—note that only step (a) of the method described in Donoghue et al. is used herein, where an aperiodic component is estimated, see FIG. 2a of Donoghue et al.) was used as the estimate of the background power spectral density. Analogously to the above, in a first embodiment of this third implementation, the extracted “1 over f referenced beta power” was used to estimate the background signal, and in a second embodiment the extracted “1 over f referenced beta peak power” was used to estimate the background signal. […]

[3] = selective doses 25-100 mg, parallel group, no pre-treatment baseline

T2 sequence (P19969 32-464 limits assumed): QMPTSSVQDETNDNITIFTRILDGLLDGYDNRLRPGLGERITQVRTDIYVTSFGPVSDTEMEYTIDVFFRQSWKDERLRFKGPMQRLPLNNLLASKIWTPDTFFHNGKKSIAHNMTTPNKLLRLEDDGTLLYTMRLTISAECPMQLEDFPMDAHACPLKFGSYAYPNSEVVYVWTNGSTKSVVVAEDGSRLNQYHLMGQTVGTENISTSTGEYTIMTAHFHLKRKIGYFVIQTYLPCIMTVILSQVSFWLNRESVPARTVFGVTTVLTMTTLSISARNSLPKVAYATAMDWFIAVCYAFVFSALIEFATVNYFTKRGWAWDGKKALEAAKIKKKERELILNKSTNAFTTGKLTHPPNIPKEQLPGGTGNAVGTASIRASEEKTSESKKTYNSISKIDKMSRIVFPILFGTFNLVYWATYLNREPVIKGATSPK
T2 sequence (P63079 26-473 partner): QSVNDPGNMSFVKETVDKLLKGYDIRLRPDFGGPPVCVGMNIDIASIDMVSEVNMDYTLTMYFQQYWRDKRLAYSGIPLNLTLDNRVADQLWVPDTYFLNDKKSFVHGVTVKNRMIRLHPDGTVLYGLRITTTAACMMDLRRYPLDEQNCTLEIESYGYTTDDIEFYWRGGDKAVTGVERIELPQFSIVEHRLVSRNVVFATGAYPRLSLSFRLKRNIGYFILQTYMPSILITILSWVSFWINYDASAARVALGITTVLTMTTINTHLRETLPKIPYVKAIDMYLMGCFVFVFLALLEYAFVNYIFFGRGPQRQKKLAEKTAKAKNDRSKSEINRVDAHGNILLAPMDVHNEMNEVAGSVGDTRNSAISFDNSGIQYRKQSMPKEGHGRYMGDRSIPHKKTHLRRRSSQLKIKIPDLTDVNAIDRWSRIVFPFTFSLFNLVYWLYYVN
T2 sequence (P18508 39-466): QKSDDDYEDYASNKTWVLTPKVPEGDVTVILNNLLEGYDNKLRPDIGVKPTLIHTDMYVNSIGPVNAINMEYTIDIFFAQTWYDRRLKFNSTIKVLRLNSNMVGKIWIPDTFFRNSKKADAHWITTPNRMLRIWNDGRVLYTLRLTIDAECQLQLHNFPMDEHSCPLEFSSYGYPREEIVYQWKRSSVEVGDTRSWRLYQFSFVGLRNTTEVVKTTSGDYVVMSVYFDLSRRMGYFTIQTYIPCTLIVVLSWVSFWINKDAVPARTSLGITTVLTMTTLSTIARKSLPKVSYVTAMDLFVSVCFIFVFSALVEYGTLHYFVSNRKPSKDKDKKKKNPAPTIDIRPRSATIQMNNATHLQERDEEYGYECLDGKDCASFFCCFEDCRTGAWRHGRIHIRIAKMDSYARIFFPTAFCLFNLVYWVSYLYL

SMILES: Cc1onc(-c2ccc(F)cc2)c1COc1ccc(C(=O)N2CCS(=O)(=O)CC2)cn1 [basmisanil]
- EEG beta-band power (GABA-A α5 [1]; healthy volunteers and individuals with down-syndrome, Goeldner et al., 2022, Hipp et al., 2021): decrease in beta-band power
- EEG beta-band power (GABA-A α5 [1]; healthy volunteers, Hipp et al., 2021, FIG. 6): decrease EEG beta-band power

SMILES: C#Cc1ccc2c(c1)C(c1ccccc1F)=N[C@H](C)c1c(C(=O)NC)ncn1-2 [MP-III-022]
- Impairments in social, repetitive and restrictive behavioural domains (GABA-A α5 receptors): prevented impairments in many parameters

SMILES: CN1Cc2c(C(=O)OC(C)(C)C)ncn2-c2ccsc2C1=O [Ro 19-4603]
- EEG beta-band power, non-selective GABA-A NAMs (GABA-A receptors): decrease beta-band power

SMILES: Cc1ccc(-c2noc(C)c2COc2ccc(C(=O)NC3CCOCC3)nn2)cn1 [alogabat]
- Dose range that exhibits the full PD response (within GABA-A a5 receptor selective dose range) (GABA-A α5 [2]; EEG beta-band power change from baseline across dose levels): 25 to 100 mg
- Effect size (ES) placebo vs treated group, locally referenced beta power (GABA-A α5 [2]; both variants (FIG. 4B interpolation, FIG. 4C 1/f fit), selective doses 25-100 mg, parallel group, no pre-treatment baseline, p<0.007): ~0.7
- Frequency specificity of the pharmacodynamic EEG effect (GABA-A α5 [2]; change in power spectrum, 25-100 mg vs placebo, relative to pre-treatment baseline): specific to the beta-band
- Change from baseline in EEG beta-band power (12-30 Hz) (GABA-A α5 [2]; relative to pre-dose baseline, compared to placebo, about 180 min after dosing): increases EEG beta-band power; also recorded: strong and consistent increase in beta-band power
- Effect size (ES) placebo vs treated group, relative beta power (GABA-A α5 [2]; [3]): 0.62
- Separation of placebo and treated group by absolute beta power (GABA-A α5 [2]; [3]): not able to discriminate between the alogabat and the placebo group; also recorded: does not allow separating groups

SMILES: CCc1c(C(=O)OC)ncc2[nH]c3cc(OC)c(OC)cc3c12 [DMCM]
- EEG beta-band power, non-selective GABA-A NAMs (GABA-A receptors): decrease beta-band power
